“Also recorded” adds a separate entry of the source.
Assays:
MiaPaca-2 PDAC cells = assay: MTT cytotoxicity, pancreatic cancer cell line MiaPaca-2; format: cell-based; conditions: for IC50: MTT, 72 h
Method: To determine cytotoxicity of Re-Phen and Phenformin, different cell lines were exposed to different concentrations of the compounds and their viabilities were followed over time. […] Cell viability was measured using the MTT assay. The absorption at 590 nm was measured with a microplate reader (SpectraMax, Molecular Device, San Diego, CA) to quantify cell numbers. The proportion of cells was normalized to that of untreated cells and expressed as mean±standard error of the mean (SEM) (n=6). The half-maximal inhibitory concentration (IC50) values were calculated by a sigmoidal dose-response (variable slope) curve-fitting using GraphPad Prism software.

BXPC-3 = assay: MTT cytotoxicity, pancreatic cancer cell line BXPC-3; format: cell-based
Method: (§1) To determine cytotoxicity of Re-Phen and Phenformin, different cell lines were exposed to different concentrations of the compounds and their viabilities were followed over time. Pancreatic cells were seeded in 96-well plates (5000 cells/well) overnight, and treated with Re-Phen (FIG. 13A) or phenformin (FIG. 13B) in concentrations ranging from 4.57×10−4 mM to 1.0 mM at 37° C. for 72 h. Cell viability was measured using the MTT assay. The absorption at 590 nm was measured with a microplate reader (SpectraMax, Molecular Device, San Diego, CA) to quantify cell numbers. The proportion of cells was normalized to that of untreated cells and expressed as mean±standard error of the mean (SEM) (n=6). The half-maximal inhibitory concentration (IC50) values were calculated by a sigmoidal dose-response (variable slope) curve-fitting using GraphPad Prism software.

PDAC cells [1] = assay: Glycolytic ratio, YSI metabolic analyzer; format: cell-based; conditions: 30 μM, 24 hours
Method: The glycolytic ratio was obtained using a YSI metabolic analyzer after treatments with phenformin (30 μM) or Re-Phen (30 μM) for 24 hours. Wells with culture media but without cells were used for baseline reading. Data are presented as mean±SD (n=3). *p<0.05; **p<0.01.
Both Re-Phen and phenformin altered the mitochondrial functions and metabolic state of PDAC cells. The fluorescent intensities for both monomeric forms (Ex/Em=490/525 nm) and J-aggregates (Ex/Em=540/590 nm) of JC-10 change upon mitochondrial membrane polarization. Thus, an increase in the ratio of fluorescence intensities measured at 525 nm (monomeric form) over 590 nm (aggregates) represents a decrease in mitochondrial membrane potential.

IRGOV-1 = assay: MTT cytotoxicity, ovarian cancer cell line IRGOV-1; format: cell-based; conditions: 72 hours
Method: (§2) Finally, a comparison study of the cytotoxicity of Re-Phen and phenformin in a panel of ovarian cancer cell lines by MTT assay after a 72 hour incubation period was conducted. Ovarian cells were seeded at 5000 cells/well in 96-well plates overnight, and treated with Re-Phen or phenformin in different concentrations (from 4.57×10^−4 mM to 1.0 mM in 3-fold increase) at 37° C. for 72 hours. Cell viability was measured using the MTT assay. The absorption at 590 nm was measured at microplate reader (SpectraMax, Molecular Device, San Diego, CA) to quantify cell numbers. The proportion of cells was normalized to that of untreated cells and expressed as mean±standard error of the mean (SEM) (n=5-6). The resulting reduced viability with half-maximal inhibitory concentration (IC50) values of mM were calculated by a sigmoidal dose-response (variable slope) curve-fitting using GraphPad Prism software. The data are shown in FIG. 19A (Re-Phen) and FIG. 19B (phenformin). […] In fact, Re-Phen is shown to display >2,000-fold and >5,000-fold higher cytotoxicity against OVACAR-8 and SKOV3 (Table 2) human ovarian cancer cell lines, respectively.

PDAC cells [2] = assay: DCFDA cellular ROS detection assay; format: cell-based; conditions: for level of reactive oxygen species (ROS): DCFDA assay, FIG. 9B
Method: Decreased fluorescence intensity measured at Ex/Em 485/535 nm indicated decreased level of ROS. Data are expressed as mean±SD (n=4). ***p<0.001 compared to vehicle (DMSO) control.
The production of intracellular reactive oxygen species (ROS) after treatments with Re-Phen and phenformin in PDAC cells was also measured (FIG. 16). DCFDA Cellular ROS Detection AssayKit (Abcam, Cambridge, MA) was used to measure Intracellular reactive oxygen species (ROS). Briefly, after seeded into 96-well plates at a cell density of 2.5×10^4 cells per well overnight, cell monolayers were washed and incubated for 45 min at 37° C. in the dark in the presence of 25 μM DCFDA diluted in serum-free adhesion medium without phenol red according to the manufacturer's instructions. Cells were then treated with compounds as indicated for 1 hour. End-point fluorescence was measured in a fluorescence microplate reader (Syneregy H1, Bio-Tek, Winooski, VT) at 485 nm excitation and 535 nm emission wavelengths.

[3] = tested on: MiaPaca-2 and Kras* cells; assay: NADH-to-total NAD (NADt) ratio, colorimetric kit; format: cell-based; conditions: 100 μM, 3 hours or 12 hours
Method: Data are presented as mean±SD (n=3). *p<0.05; ***p<0.001. Vehicle (DMSO) treated cells were as controls.
Following, PDAC cells were used to measure NADH-to-total NAD (NADt) ratios. NADH-to-total NAD (NADt) ratios were measured using a colorimetric kit (Biovision, Milpitas, CA). Briefly, cells were treated for different time periods as indicated and total NAD (NADt, NAD+NADH) was extracted following manufacturer provided protocol. For each of the extracted samples, half of the sample was heated at 60° C. for 30 minutes to decompose NAD+ while keeping NADH intact. Total NAD+ and NADH level was measured without the heating steps and in the presence of NAD cycling enzyme. The ratio of NADH to NADt were calculated on absorbance measured at 450 nm with a microplate reader (SpectraMax, Molecular Device, San Diego, CA). Cells treated with the same amount of DMSO used to prepare 100 μM phenformin or Re-Phen were used as controls.

OVCAR4 = assay: MTT cytotoxicity, ovarian cancer cell line OVCAR4; format: cell-based
Method: as §2

Kras* = assay: MTT cytotoxicity, pancreatic cancer cell line Kras*; format: cell-based, murine; conditions: 72 h
Method: as §1

AMPK = AMPK and AMPK phosphoprotein western blotting; format: cell-based; conditions: 24 hours
Method: R-actin was used as a loading control. Cells were treated with phenformin or Re-Phenformin overnight at the indicated concentrations for 24 hours.
AMPK is a key enzyme that becomes activated under nutrient stress. Annexin V/PI double staining kit was used to detected cell death in flow cytofluorimetric analyses. […] In Kras* cell line, cells died largely of necrosis; in MiaPaca-2 cell line, cells died mostly of apoptosis.

| Compound | IC50 (MiaPaca-2 PDAC cells) [µM] | fold higher cytotoxicity against MiaPaca-2 PDAC cells (MiaPaca-2 PDAC cells; Re-Phen versus phenformin, Table 1) | IC50 (BXPC-3; 72 h) [µM] | compensatory glycolysis (glycolytic ratio, lactate produced to glucose consumed) (PDAC cells [1]) | IC50 (IRGOV-1) [µM] | level of reactive oxygen species (ROS) (PDAC cells [2]) | ROS levels in MiaPaca-2 cells (PDAC cells [2]; MiaPaca-2 cells, DCFDA, treated 1 hour, FIG. 16) | ratio of NADH to total NADt [3] | IC50 (OVCAR4; 72 hours) [µM] | IC50 (Kras*) [µM] | AMPK activation (AMPK) | IC50 (MiaPaca-2 PDAC cells; Homo sapiens, MIA PaCa-2) [µM] | IC50 (BXPC-3; Homo sapiens, BXPC-3, 72 h) [µM] | IC50 (OVCAR4; Homo sapiens, OVCAR-4, 72 hours) [µM] | IC50 (Kras*; Mus musculus, Pancreatic cancer cell) [µM] |
| --- | --- | --- | --- | --- | --- | --- | --- | --- | --- | --- | --- | --- | --- | --- | --- |
| N=C(N)NC(=N)NCCc1ccccc1.[C-]#[O+].[C-]#[O+].[C-]#[O+].[Re+] [Re-Phen] | 39 | about 35 fold | 340 | increased compensatory glycolysis | 420 | reduced the level of reactive oxygen species (ROS) | reduced ROS levels | increased the ratio of NADH to total NADt; also recorded: significantly increased NADH/NADt ratio | 390 | 230 | activated AMPK | – | – | – | – |
| [H]/N=C(/N)N/C(=N/[H])NCCc1ccccc1 [Phenformin, N-phenylethyl biguanide, reference compound] | – | – | – | increased compensatory glycolysis | 380 | increased the level of ROS | – | increased the ratio of NADH to total NADt; also recorded: significantly increased NADH/NADt ratio | – | – | activated AMPK | 13600 | 1100 | 2430 | 750 |

— patent publication US20240299595A1, “CANCER THERANOSTIC COMPOSITIONS COMPRISING BIGUANIDE COMPLEXES OF GROUP 7 TRANSITION METALS AND USES THEREOF” (BOARD OF REGENTS, THE UNIVERSITY OF TEXAS SYSTEM, priority 2021, published 2024)
